Laboratory results reported in patent US20090197852A9 (priority 2001, published 2009).
“Also recorded” adds a separate entry of the source. Read-outs that look alike come from different tables or passages of the source.

Assays:
[1] = cellular assays; cited from earlier work
[2] = patients treated at 56 mg/m^2; cited from earlier work
[3] = population PK analysis; cited from earlier work
[4] = 80 mg/m^2 dose level, daily x5, cited from earlier work; for Cmax: read-out: plasma Cmax
[5] = system: SKBr3 breast cancer cells; settings: cited from earlier work
[6] = system: colon adenocarcinoma cells; settings: cited from earlier work
NSCLC cells = settings: cited from earlier work
MEXF 276L melanoma cells = settings: cited from earlier work
advanced solid tumors = settings: cited from earlier work
clinical = settings: human, in vivo; for AUC / AUC(0-t) / Tmax / Cmax: iv; for Cmax: first dose
Description: Patients were assessed in 4-week cycles.
PK assessment. PK sampling was obtained during the first treatment cycle only. […] Plasma concentrations were determined by a validated liquid chromatography-mass spectrometry (LC-MS) method.
For patients with a body surface area greater than 2.4 m^2, dosing was calculated using a maximum BSA of 2.4 m^2.
Plasma samples from some of the patients were assayed using a validated good laboratory practice (GLP) compliant analytical method.
All of the patients' plasma samples were analyzed.

[7] = Dose limiting toxicity and adverse events in trial of 17-AAG with trastuzumab; settings: 450 mg/m^2/single administration of 17-AAG once weekly for four weeks
Description: The invention was tested in an open-label, dose escalating clinical trial. […] Metastatic disease, if present, was not progressing so as to required palliative treatment. […] Patients were assessed in 4-week cycles.
Dosing. […] If two or more of six evaluable patients entered in a cohort experienced a DLT then the MTD was exceeded; if the previous dose level produced DLT in no more than 1 out of 6 patients, then this dose was considered the MTD and was used for all subsequent patients entered in the phase 2 portion of the study.

breast cancer cells = settings: cited from earlier work
solid tumors = settings: cited from earlier work
[8] = cited from earlier work
metastatic melanoma = settings: cited from earlier work
[9] = system: solid tumors and lymphomas; settings: 3 weeks out of a 4 week cycle, cited from earlier work
[10] = system: lung cancer cells with wild-type Rb; settings: cited from earlier work
leukemia cells = settings: cited from earlier work
[11] = free base form; cited from earlier work
[12] = All cohorts combined (225-450 mg/m^2), mean
[13] = Cohort 1, 17-AAG 225 mg/m^2 IV over 120 min with trastuzumab, first dose, mean
[14] = Cohort 2, 17-AAG 300 mg/m^2 IV over 120 min with trastuzumab, first dose, mean
[15] = Cohort 3, 17-AAG 375 mg/m^2 IV over 120 min with trastuzumab, first dose, mean
[16] = Cohort 4, 17-AAG 450 mg/m^2 IV over 120 min with trastuzumab, first dose, mean
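For AUC in this document: Open-label dose-escalation clinical trial, plasma drug levels measured by validated LC-MS, sampling during the first 4-week treatment cycle only.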
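For MRT in this document: Open-label dose-escalation clinical trial, plasma drug levels measured by validated LC-MS, sampling during the first 4-week treatment cycle only.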
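For Tmax in this document: Open-label dose-escalation clinical trial, plasma drug levels measured by validated LC-MS, sampling during the first 4-week treatment cycle only.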
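For Vd in this document: Open-label dose-escalation clinical trial, plasma drug levels measured by validated LC-MS, sampling during the first 4-week treatment cycle only.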

For `CO[C@H]1/C=C\C=C(/C)C(=O)NC2=CC(=O)C(N)=C(C[C@@H](C)C[C@H](OC)[C@H](O)[C@@H](C)/C=C(\C)[C@@H]1OC(N)=O)C2=O` [17-AG, 17-amino-17-demethoxygeldanamycin], the “activity relative to 17-AAG” value [1] is listed as “equipotent; also recorded: activity approximately equal to that of 17-AAG”, the Clearance [2] is listed as 30.8 L/h/m^2 and the Vz [2] is listed as 203 L/m^2. The “average AUC” value [2] was 5,558 nM*h, the “average t1/2” value [2] was 8.6 h and the Clearance [3] was 21.3 L/h. The t1/2 [4] was 1.75 h and the Cmax [4] was 607 nM.
For `C=CCNC1=C2C[C@@H](C)C[C@H](OC)[C@H](O)[C@@H](C)/C=C(\C)[C@H](OC(N)=O)[C@@H](OC)/C=C\C=C(/C)C(=O)NC(=CC1=O)C2=O` [17-AAG, 17-allylamino-17-demethoxygeldanamycin], the “effect of exposure on client proteins” value [5] is listed as “depletion of erbB2 and destabilization of Raf-1 and mutant p53”, the “effect of exposure on client proteins” value [6] is listed as “depletion of Raf-1, c-Akt, and Erk1/2” and the Clearance [2] is listed as 19.9 L/h/m^2. For the same compound, the Vz [2] was 93 L/m^2, the “average AUC” value [2] was 6,708 nM*h and the “effect of exposure on client proteins” value (NSCLC cells) was “depletion of erbB1 and erbB2 levels”. The “effect of exposure on client proteins” value (MEXF 276L melanoma cells) was “depletion of Hsp90 and down-regulation of Raf-1 and erbB2”, the “dose at which nausea and vomiting secondary to pancreatitis and grade 3 fatigue were observed” value (advanced solid tumors; weekly for 3 out of every 4 weeks) was 395 mg/m^2 and the objective tumor responses (advanced solid tumors; weekly or twice weekly schedules) was “No objective tumor responses have been observed in this trial to date”. The Clearance (clinical; [12]) was 536 mL/min, the Clearance (clinical; All cohorts combined, Median) was 497 mL/min and the MRT (clinical; [12]) was 4.71 h. For the same compound, the MRT (clinical; All cohorts combined, Median) was 4.26 h, the Vd (clinical; Vss, All cohorts combined (225-450 mg/m^2), mean) was 147 ± 94.8 L and the Vd (clinical; Vss, All cohorts combined, Median) was 128 L. The Vd (clinical; Vz, All cohorts combined (225-450 mg/m^2), mean) was 187 ± 156 L, the Vd (clinical; Vz, All cohorts combined, Median) was 146 L and the AUC (clinical; 225 mg/m2) was 588 ng·h/mL. For the same compound, the AUC(0-t) (clinical; 225 mg/m2) was 7950 ng·h/mL, the Tmax (clinical; 225 mg/m2) was 1.8 h and the Cmax (clinical; 225 mg/m2, Cmax, Cohort 1, 17-AAG 225 mg/m^2 IV over 120 min with trastuzumab, mean) was 3260 ng/mL. For the same compound, the AUC (clinical; 300 mg/m2) was 281 ng·h/mL, the AUC(0-t) (clinical; 300 mg/m2) was 15900 ng·h/mL and the Tmax (clinical; 300 mg/m2) was 1.9 h. The Cmax (clinical; 300 mg/m2, Cmax, Cohort 2, 17-AAG 300 mg/m^2 IV over 120 min with trastuzumab, mean) was 4050 ng/mL, the AUC (clinical; 375 mg/m2) was 490 ng·h/mL and the AUC(0-t) (clinical; 375 mg/m2) was 27500 ng·h/mL. For the same compound, the Tmax (clinical; 375 mg/m2) was 1.9 h, the Cmax (clinical; 375 mg/m2, Cmax, Cohort 3, 17-AAG 375 mg/m^2 IV over 120 min with trastuzumab, mean) was 9400 ng/mL and the AUC (clinical; 450 mg/m2) was 558 ng·h/mL. The AUC(0-t) (clinical; 450 mg/m2) was 27900 ng·h/mL, the Tmax (clinical; 450 mg/m2) was 2 h and the Cmax (clinical; 450 mg/m2, Cmax, Cohort 4, 17-AAG 450 mg/m^2 IV over 120 min with trastuzumab, mean) was 8110 ng/mL. For the same compound, the half-life (clinical; t1/2, All cohorts combined (225-450 mg/m^2), mean) was 4.13 ± 2.48 h, the half-life (clinical; t1/2, All cohorts combined, Median) was 3.42 h and the Cmax [4] was 2700 nM. The DLT [7] was “without reaching DLT in any treated patient”, the “effect of exposure on client proteins” value (breast cancer cells) was “depletion of steroid receptors” and the MRT (All cohorts combined, Max) was 11.44 h. The Vss (All cohorts combined, Max) was 308.74 L/m^2, the t1/2 (All cohorts combined, Max) was 11.42 h and the MRT (All cohorts combined, Min) was 2.44 h. The t1/2 (All cohorts combined, Min) was 1.33 h, the AUCext [13] was 7.1% and the AUCtotal [13] was 8,539.3 ng/mL*h. For the same compound, the AUMCtotal [13] was 29,168 ng/mL*(h^2), the Cmax [13] was 3,257.5 ng/mL and the Lz [13] was 0.3804 h⁻¹. For the same compound, the AUCext [14] was 1.6%, the AUCtotal [14] was 16,163 ng/mL*h and the AUMCtotal [14] was 107,072 ng/mL*(h^2). For the same compound, the Lz [14] was 0.1637 h⁻¹, the AUCext [15] was 2.2% and the AUCtotal [15] was 27,983 ng/mL*h. The AUMCtotal [15] was 124,179 ng/mL*(h^2), the Lz [15] was 0.1996 h⁻¹ and the AUCext [16] was 2.8%. The AUCtotal [16] was 28,425 ng/mL*h, the AUMCtotal [16] was 65,954 ng/mL*(h^2) and the Lz [16] was 0.2037 h⁻¹. The dose limiting toxicity (solid tumors; daily for 5 days every 3 weeks) was “dose limiting reversible hepatotoxicity”, the “maximum tolerated dose (MTD) and recommended Phase 2 dose” value (solid tumors; daily for 5 days every 3 weeks) was 40 mg/m^2 and the objective tumor responses (solid tumors; doses up to 110 mg/m^2 daily for 5 days every 3 weeks) was “No objective tumor responses were observed”. For the same compound, the “relation between dose and area under the curve (AUC)” value ([8]; dose levels studied) was “linear correlation”, the “mean volume of distribution” value ([8]; highest dose level 450 mg/m^2) was 142.6 L and the “complete or partial responses” value (metastatic melanoma; once weekly) was “No complete or partial responses were recorded”. For the same compound, the “dose at which dose limiting toxicity was observed” value (metastatic melanoma; once weekly, elevation of AST) was 450 mg/m^2/week, the stable disease (metastatic melanoma; patients treated at 320-450 mg/m^2) was “two showed radiologically documented long term stable disease” and the MTD ([9]; weekly 17-AAG) was 308 mg/m^2. The objective tumor responses ([9]; weekly) was “No objective tumor responses have been observed to date in this trial”, the “effect of exposure on client proteins” value [10] was “degradation of cdk4, cdk6, and cyclin E” and the “effect of exposure on client proteins” value (leukemia cells) was “down-regulation of intracellular Bcr-Abl and c-Raf proteins and reduction of Akt kinase activity”.
In the case of `C=CCNc1c(O)cc2c(O)c1C[C@@H](C)C[C@H](OC)[C@H](O)[C@@H](C)/C=C(\C)[C@H](OC(N)=O)[C@@H](OC)/C=C\C=C(/C)C(=O)N2` [17-AAGH2, 17-allylamino-18,21-dihydro-17-demethoxygeldanamycin], the “stability to air oxidation” value [11] is given as “air oxidizes readily”.
